Measurements taken from PMC9088073, “Discovery of 2-Phenylquinolines with Broad-Spectrum Anti-coronavirus Activity” (ACS Medicinal Chemistry Letters, 2022).
Where two headings read alike, the source gives them in different places. Marks after values point to notes of the source that are not given here.

How the values were obtained:
SARS-CoV-2 = test: microbe, parasite or virus in culture; assay type: cell-based
HCoV-229E = test: microbe, parasite or virus in culture; assay type: cell-based; settings: Human coronavirus 229E, HEL 299, read-out: HCoV-229E EC50
HCoV-OC43 = test: microbe, parasite or virus in culture; assay type: cell-based; settings: Betacoronavirus 1, OC43, HEL 299, read-out: HCoV-OC43 EC50
in vitro [1] = settings: chlorocebus sabaeus
in vitro [2] = settings: human
VeroE6 cells = settings: uninfected VeroE6 cells, MTS assay; mean ± SD of duplicate experiments
SARS-CoV-2 nsp12 RdRp = SARS-CoV-2 nsp12 RdRp (Severe acute respiratory syndrome coronavirus 2, UniProt P0DTD1); test: SARS-CoV-2 nsp12 RdRp activity, fluorescent-based assay; assay type: biochemical; settings: in the presence of the highest concentration of tested compound (30 μM); read-out: RdRp percentage of control
[3] = target: SARS-CoV-2 nsp13 helicase (Severe acute respiratory syndrome coronavirus 2, UniProt P0DTD1); test: biochemical; assay type: biochemical; settings: for IC50: SARS-CoV-2 nsp13 helicase-associated activity, read-out: helicase unwinding IC50
SARS-CoV-2 nsp13 ATPase = SARS-CoV-2 nsp13 ATPase (Severe acute respiratory syndrome coronavirus 2, UniProt P0DTD1); assay type: biochemical; settings: for IC50: read-out: helicase ATPase IC50
[4] = Severe acute respiratory syndrome coronavirus 2, […], mean ± SD of duplicate experiments, read-out: Anti-SARS-CoV-2 activity EC50
[5] = […], mean ± SD of duplicate experiments
[6] = SARS-CoV-2 nsp13 ATPase-associated activity
[7] = in the presence of the highest concentration of tested compound (30 μM; 3 μM for SSYA10-001)
[8] = Severe acute respiratory syndrome coronavirus 2, read-out: Anti-SARS-CoV-2 activity EC50, primary screening

CCCOc1ccc(-c2cc(C(=O)NCCN(CC)CC)c3ccccc3n2)cc1 [Compound 11l]
EC50 (SARS-CoV-2; [4]): > 100 µM
Anti-SARS-CoV-2 activity EC50 (SARS-CoV-2; [5]): loss of activity

CCCOc1ccc(-c2cc(OCCN(CC)CC)c3cc(OC)cc(OC)c3n2)cc1 [Compound 9a]
EC50 (SARS-CoV-2; [4]): 13 ± 10 µM
EC50 (HCoV-229E): 3.5 ± 2.7 µM
EC50 (HCoV-OC43): 2.2 ± 0.5 µM
CC50 (in vitro [1]): > 100 µM
CC50 (in vitro [2]): 43.5 ± 5.6 µM

CCCOc1ccc(-c2cc(OCCN(CC)CC)c3c(OC)c(OC)c(OC)cc3n2)cc1 [Compound 10a]
EC50 (SARS-CoV-2; [4]): 8.3 ± 1.8 µM
CC50 (in vitro [1]): 23.8 ± 8.3 µM

CCCOc1ccc(-c2cc(OC3CC4CCN3CC4)c3ccccc3n2)cc1 (stereo not shown) [Compound 1d]
EC50 (SARS-CoV-2; [4]): > 100 µM

CCCOc1ccc(-c2cc(OCCN3CCN(Cc4ccccc4)CC3)c3cc(OC)cc(OC)c3n2)cc1 [Compound 9f]
EC50 (SARS-CoV-2; [4]): > 100 µM
VeroE6 cells CC50 (VeroE6 cells): lacked cytotoxicity
CC50 (in vitro [1]): > 100 µM

CCCOc1ccc(-c2cc(OCCN3CCCC3)c3c(OC)ccc(OC)c3n2)cc1 [Compound 7j]
EC50 (SARS-CoV-2; [4]): 11.3 ± 2.1 µM
EC50 (HCoV-229E): 0.6 ± 0.3 µM
EC50 (HCoV-OC43): 1.8 ± 0.7 µM
CC50 (in vitro [1]): 89.8 ± 2.8 µM
CC50 (in vitro [2]): 8.7 ± 0.8 µM

CCCOc1ccc(-c2cc(OCCN3CCCC3)c3cc(OC)cc(OC)c3n2)cc1 [Compound 9j]
EC50 (SARS-CoV-2; [4]): 5.9 ± 2.4 µM
EC50 (HCoV-229E): 40 ± 20.8 µM
EC50 (HCoV-OC43): 22.7 ± 2.8 µM
remaining activity at 30 µM (SARS-CoV-2 nsp12 RdRp): 100%
IC50 [3]: > 30 µM
remaining activity at 30 µM ([3]; in the presence of the highest concentration of tested compound (30 μM), read-out: helicase unwinding percentage of control): 57%
IC50 (SARS-CoV-2 nsp13 ATPase; [6]): > 30 µM
helicase ATPase percentage of control (SARS-CoV-2 nsp13 ATPase; [7]): 100%
CC50 (in vitro [1]): > 100 µM
CC50 (in vitro [2]): > 100 µM

CCCOc1ccc(-c2cc(OCCN3CCN(Cc4ccccc4)CC3)c3ccccc3n2)cc1 [Compound 1f]
EC50 (SARS-CoV-2; [4]): 11.9 ± 5.5 µM
EC50 (HCoV-229E): 61.3 ± 32.2 µM
EC50 (HCoV-OC43): 92.3 ± 11 µM
VeroE6 cells CC50 (VeroE6 cells): lacked cytotoxicity
CC50 (in vitro [1]): > 100 µM
CC50 (in vitro [2]): > 100 µM

CCCOc1ccc(-c2cc(OCCN(CC)CC)c3ccccc3n2)cc1 [Compound 1a]
EC50 (SARS-CoV-2; [4]): 6.5 ± 0.05 µM
EC50 (SARS-CoV-2; [8]): 6 µM
CC50 (in vitro [1]): 21.2 ± 4.2 µM

CCCOc1ccc(-c2cc(OCCN(CC)CC)c3cc(OC)c(OC)cc3n2)cc1 [Compound 8a]
EC50 (SARS-CoV-2; [4]): 5.1 ± 1.4 µM
EC50 (HCoV-229E): 1.8 ± 0.4 µM
EC50 (HCoV-OC43): 1.9 ± 0.4 µM
CC50 (in vitro [1]): 70.3 ± 23.7 µM
CC50 (in vitro [2]): 9.2 ± 0.1 µM

CCCOc1ccc(-c2cc(OCCN3CCc4ccccc4C3)c3c(OC)cc(OC)cc3n2)cc1 [Compound 6n, 4-[2-(3,4-Dihydroisoquinolin-2(1H)-yl)ethoxy]-5,7-dimethoxy-2-(4-propoxyphenyl)quinoline]
EC50 (SARS-CoV-2; [4]): > 100 µM
Anti-SARS-CoV-2 activity EC50 (SARS-CoV-2; [5]): devoid of any activity
CC50 (in vitro [1]): > 100 µM

CCCOc1ccc(-c2cc(OCCN(CC)CC)c3c(OC)cc(OC)cc3n2)cc1 [Compound 6a]
EC50 (SARS-CoV-2; [4]): > 100 µM
CC50 (in vitro [1]): 6.71 ± 3.5 µM

CCCOc1ccc(-c2cc(OCCN3CCCC3)c3cc(OC)c(OC)cc3n2)cc1 [Compound 8j]
EC50 (SARS-CoV-2; [4]): 9.6 ± 2.2 µM
CC50 (in vitro [1]): 12.9 ± 4.8 µM

CCN(CC)CCOc1cc(-c2ccc(Cl)s2)nc2ccccc12 [Compound 13a]
EC50 (SARS-CoV-2; [4]): > 100 µM
Anti-SARS-CoV-2 activity EC50 (SARS-CoV-2; [5]): loss of activity

CCCOc1ccc(-c2cc(OCCN(CC)CC)c3c(OC)cccc3n2)cc1 [Compound 2a]
EC50 (SARS-CoV-2; [4]): > 100 µM

CCCOc1ccc(-c2cc(OCCN3CCc4cc(OC)c(OC)cc4C3)c3ccccc3n2)cc1 [Compound 1g]
EC50 (SARS-CoV-2; [4]): > 100 µM

CCCOc1ccc(-c2cc(OCCCN(C)C)c3ccccc3n2)cc1 [Compound 1b]
EC50 (SARS-CoV-2; [4]): > 100 µM

CCCOc1ccc(-c2cc(OCCN3CCCCC3)c3cc(OC)c(OC)cc3n2)cc1 [Compound 8k]
EC50 (SARS-CoV-2; [4]): 2.6 ± 1.4 µM
EC50 (HCoV-229E): 0.2 ± 0.2 µM
EC50 (HCoV-OC43): 1.6 ± 0.2 µM
CC50 (in vitro [1]): 11.1 ± 1.3 µM
CC50 (in vitro [2]): 12.3 ± 1.1 µM

CCCOc1ccc(-c2cc(OCc3ccccn3)c3ccccc3n2)cc1 [Compound 1e]
EC50 (SARS-CoV-2; [4]): > 100 µM

NC(=O)c1ccc(Oc2ccc(C(N)=O)cc2)cc1 [OUL-355]
EC50 (SARS-CoV-2; read-out: Anti-SARS-CoV-2 activity EC50, primary screening): > 100 µM

CCCOc1ccc(-c2cc(OCCN(CC)CC)c3c(OC)ccc(OC)c3n2)cc1 [Compound 7a]
EC50 (SARS-CoV-2; [4]): 4.6 ± 0.2 µM
EC50 (HCoV-229E): 0.7 ± 0.3 µM
EC50 (HCoV-OC43): 2 ± 0.2 µM
CC50 (in vitro [1]): 24.6 ± 0.1 µM
CC50 (in vitro [2]): 9.9 ± 0.8 µM

CCCOc1ccc(-c2cc(OCCN3CCNCC3)c3cccc(OC)c3n2)cc1 [Compound 5i]
EC50 (SARS-CoV-2; [4]): 7.1 ± 4.2 µM
EC50 (HCoV-229E): 0.3 ± 0.05 µM
EC50 (HCoV-OC43): 1.7 ± 0.2 µM
CC50 (in vitro [1]): 30.3 ± 0.8 µM
CC50 (in vitro [2]): 8 ± 1.3 µM

CCCOc1ccc(-c2cc(OCCN3CCCC3)c3cccc(OC)c3n2)cc1 [Compound 5j]
EC50 (SARS-CoV-2; [4]): > 100 µM
CC50 (in vitro [1]): 30.8 ± 0.1 µM

CCCOc1ccc(-c2cc(OCCn3cccc3)c3ccccc3n2)cc1 [Compound 1h]
EC50 (SARS-CoV-2; [4]): > 100 µM

CCN(CC)CCOc1cc(-c2ccccc2)nc2ccccc12 [Compound 12a]
EC50 (SARS-CoV-2; [4]): > 100 µM
Anti-SARS-CoV-2 activity EC50 (SARS-CoV-2; [5]): loss of activity
CC50 (in vitro [1]): 64.7 ± 29.8 µM

CCCOc1ccc(-c2cc(OCCN3CCc4cc(OC)c(OC)cc4C3)c3c(OC)cc(OC)cc3n2)cc1 [Compound 6g]
EC50 (SARS-CoV-2; [4]): 8.8 ± 5.6 µM
EC50 (HCoV-229E): 2.9 ± 0.05 µM
EC50 (HCoV-OC43): 1.5 ± 0.1 µM
remaining activity at 30 µM (SARS-CoV-2 nsp12 RdRp): 62%
IC50 [3]: 0.42 ± 0.23 µM
IC50 (SARS-CoV-2 nsp13 ATPase; [6]): > 30 µM
helicase ATPase percentage of control (SARS-CoV-2 nsp13 ATPase; [7]): 90%
CC50 (in vitro [1]): > 100 µM

COc1cc(O)c2c(=O)cc(-c3ccc(OCCCN4CCN(C)CC4)c(N)c3)n(C)c2c1 [WRNA10]
EC50 (SARS-CoV-2; [8]): 10 µM
CC50 (in vitro [1]): 40 µM

CCCOc1ccc(-c2cc(OCCN3Cc4ccccc4C3)c3c(OC)cc(OC)cc3n2)cc1 [Compound 6o, 4-[2-(1,3-Dihydro-2H-isoindol-2-yl)ethoxy]-5,7-dimethoxy-2-(4-propoxyphenyl)quinoline]
EC50 (SARS-CoV-2; [4]): > 100 µM
Anti-SARS-CoV-2 activity EC50 (SARS-CoV-2; [5]): devoid of any activity
CC50 (in vitro [1]): > 100 µM

CCCOc1ccc(-c2cc(OCCN3CCc4cc(OC)c(OC)cc4C3)c3ccc(OC)cc3n2)cc1 [Compound 4g]
EC50 (SARS-CoV-2; [4]): > 40 µM

c1ccc(-c2cc(OCCN3CCCCC3)c3ccccc3n2)nc1 [Compound 14k]
EC50 (SARS-CoV-2; [4]): > 100 µM
Anti-SARS-CoV-2 activity EC50 (SARS-CoV-2; [5]): loss of activity

CCCOc1ccc(-c2cc(OCCN3CCc4cc(OC)ccc4C3)c3c(OC)cc(OC)cc3n2)cc1 [Compound 6m, 5,7-Dimethoxy-4-[2-(6-methoxy-3,4-dihydroisoquinolin-2(1H)-yl)ethoxy]-2-(4-propoxyphenyl)quinoline]
EC50 (SARS-CoV-2; [4]): > 100 µM
Anti-SARS-CoV-2 activity EC50 (SARS-CoV-2; [5]): devoid of any activity
CC50 (in vitro [1]): > 100 µM

CCCOc1ccc(-c2cc(O)c3ccccc3n2)cc1 [Compound 1]
Anti-SARS-CoV-2 activity EC50, primary screening (SARS-CoV-2): completely inactive
EC50 (SARS-CoV-2; [4]): > 100 µM

CCCOc1ccc(-c2cc(OCCCN(C)C)c3cc(OC)ccc3n2)cc1 [Compound 3b]
EC50 (SARS-CoV-2; [4]): > 100 µM

CCCOc1ccc(-c2cc(OCCN3CCCC3)c3c(OC)cc(OC)cc3n2)cc1 [Compound 6j]
EC50 (SARS-CoV-2; [4]): > 100 µM
CC50 (in vitro [1]): 16.1 ± 17 µM

C=CCn1c(S)nnc1CSc1ccccc1[N+](=O)[O-] [SSYA10-001, reference compound]
helicase ATPase percentage of control (SARS-CoV-2 nsp13 ATPase): >3 (90%) ^d
IC50 (SARS-CoV-2 nsp13 ATPase): > 3 µM

CCCOc1ccc(-c2cc(OCCN(Cc3ccccc3)Cc3ccccc3)c3ccccc3n2)cc1 [Compound 1c]
EC50 (SARS-CoV-2; [4]): > 100 µM

CCCOc1ccc(-c2cc(OCCN(CC)CC)c3cccc(OC)c3n2)cc1 [Compound 5a]
EC50 (SARS-CoV-2; [4]): 9.1 ± 3.05 µM
EC50 (HCoV-229E): 1.3 ± 0.9 µM
EC50 (HCoV-OC43): 0.6 ± 0.1 µM
CC50 (in vitro [1]): > 100 µM
CC50 (in vitro [2]): 10.4 ± 0.8 µM

N#C[C@@]1(c2ccc3c(N)ncnn23)O[C@H](CO)[C@@H](O)[C@H]1O [GS-441524, reference compound]
EC50 (SARS-CoV-2; [4]): 0.7 ± 0.07 µM
EC50 (HCoV-229E): 0.9 ± 0.1 µM
CC50 (in vitro [2]): > 100 µM
